Measurements reported in article PMC10082729, “First study on in vitro antiviral and virucidal effects of flavonoids against feline infectious peritonitis virus at the early stage of infection” (Veterinary World, 2023).
Converted amounts (≈) assume the structure as drawn. Read-outs that look alike come from different tables or passages of the source.

What was measured:
FIPV 3CL^pro = details: cited from earlier work
Coxsackievirus B3 [1] = system: Coxsackievirus B3; parameters: method as in PMID 24963331; details: in vitro; cited from earlier work
Coxsackievirus B3 [2] = system: Coxsackievirus B3; parameters: method as in PMID 24963331; details: cited from earlier work
in vitro = details: cat
FIPV [3] = test: Post-viral entry assay, FIPV-infected cells by IPMA; details: for selectivity ratio at 24 h: cat
[4] = system: Herpes simplex virus type 1; details: in vitro; cited from earlier work
CRFK cells [5] = details: cat, 24 h
Influenza A virus = details: in vitro; cited from earlier work
SARS-CoV-2 = details: in vitro, cited from earlier work
Marek’s disease virus = system: Marek’s disease virus; parameters: method as in PMID 33008383; details: at 20 µg/mL; cited from earlier work
[6] = system: African swine fever virus; details: in vitro, at 10 µg/mL; cited from earlier work
SARS-CoV-2 3CL^pro = system: SARS-CoV-2 3CL^pro; parameters: method as in PMID 32963564; details: in vitro; cited from earlier work
Zika virus = system: Zika virus; parameters: method as in PMID 27344138; details: in vitro; cited from earlier work
Hepatitis B virus = details: in vitro; cited from earlier work
CRFK cells [7] = test: Cell cytotoxicity and cell viability (MTS assay); details: 24 h
FIPV [8] = test: Pre-compound assay; assay type: cell-based, feline infectious peritonitis virus; details: cells pretreated 2 h, then FIPV 2 h, 24-HPI, crystal violet and IPMA
FIPV [9] = test: Attachment assay; assay type: cell-based, feline infectious peritonitis virus; details: co-adsorbed at 4°C for 1 h, 24-HPI
Method: (§1) Crandell–Rees feline kidney cells were seeded into a 96-well plate at 1.8 × 10^4 cells/well and cultured in MEM containing 7% FBS. Pre-compound, attachment, penetration, post-viral entry, and virucidal assays were performed based on each step of viral infection. […] For the antiviral activity assay, FIPV was used at 50 TCID50/well in all experiments. Crandell–Rees feline kidney cells were inoculated with FIPV and treated with 0.1% DMSO as vehicle control. GC376 (TargetMol®, Wellesley Hills, MA, USA) was used as the FIPV-specific drug control. Three experiments were performed in duplicate wells for each compound.
To determine whether the compounds could interfere with virus binding to the host cells, CRFK cells in a 96-well plate were prechilled at 4°C for 1 h, and cotreated with the FIPV inoculum and the diluted compounds or controls at 4°C for 1 h to allow virus binding, but not entry to the host cells.
For initial screening, FIPV infection was determined using crystal violet staining for all antiviral assays. Briefly, the supernatants were removed from the compound-treated and FIPV-infected CRFK and control cells, and the cells were fixed with cold methanol at room temperature (25°C) for 30 min. […] Five to ten images of positive FIPV-infected cells were recorded at a magnification of 100× using a phase-contrast inverted microscope (Olympus IX73). […]

FIPV [10] = test: Penetration assay; assay type: cell-based, feline infectious peritonitis virus; details: FIPV bound at 4°C 1 h, compound added at 37°C, 24 h
Enterovirus A71 = system: Enterovirus A71; parameters: method as in PMID 19537794; details: in vitro, at 10 µM; cited from earlier work
[11] = system: Human immunodeficiency virus reverse transcriptase; parameters: method as in PMID 21730371; details: in vitro; cited from earlier work
FIPV [12] = test: Cotreatment (virucidal) assay, IPMA; assay type: cell-based, feline infectious peritonitis virus; details: Alphacoronavirus 1, FIPV and compound coincubated with cells at 37°C for 2 h, 24 h
FIPV [13] = test: Time-of-addition (ToA) assay, RT-qPCR; assay type: cell-based, feline infectious peritonitis virus
[14] = system: Foot-and-mouth disease virus; details: virus and compound cotreated before incubating with cells; read-out: EC50 (virucidal, cotreatment); cited from earlier work
[15] = system: Foot-and-mouth disease virus; details: in vitro, post-viral entry; cited from earlier work
FMDV 3C^pro = details: cited from earlier work
FIPV [16] = test: Post-viral entry assay, viral load by RT-qPCR; assay type: cell-based, feline infectious peritonitis virus; details: Alphacoronavirus 1, read-out: inhibition of viral copy numbers
Method: as §1
To determine whether the compounds could inhibit viral replication and translation in the host cells after infection, CRFK cells were inoculated with FIPV at 37°C for 2 h for viral adsorption.
Intracellular and extracellular FIPV from infected CRFK cells was determined using RT-qPCR, as described. […] A standard curve of viral copy numbers was generated from the plasmid containing the FIPV 3′UTR sequence by 10-fold serially diluting the plasmid from […] plasmid molecules/μL and using it for viral load quantification. Quantitative polymerase chain reaction was performed from two biological replicates and three independent experiments were performed.

FIPV [17] = test: Virucidal effect at different time points, TCID50 titration; assay type: cell-based, feline infectious peritonitis virus; details: 75 μM, direct incubation with FIPV at 37°C, compared with untreated control
Method: Feline infectious peritonitis virus inoculum at 50 TCID50/mL was directly incubated at the maximum concentrations of the compounds that were non-cytotoxic at 37°C in a 1.5 mL microcentrifuge tube for 0, 15, 30, 60, and 120 min. After the indicated incubation, the mixtures of virus and compounds were immediately subjected to viral titration according to Reed and Muench’s method. Viral titers in compound-treated wells were compared with the untreated control.

SARS-CoV-2 RdRp = details: in vitro; cited from earlier work
[18] = system: SARS-CoV 3a channel protein; details: in vitro; cited from earlier work
[19] = post-viral entry, FIPV 50 TCID50/well in CRFK cells, 24-HPI, IPMA

In the case of `COc1cc(O)c2c(=O)cc(-c3ccc(O)c(O)c3)oc2c1` [7-methylluteolin], the IC50 (FIPV 3CL^pro) is given as 28.5 ± 4.2 µM.
For `O=c1cc(-c2ccc(O)c(-c3c(O)cc(O)c4c(=O)cc(-c5ccc(O)cc5)oc34)c2)oc2cc(O)cc(O)c12` [Amentoflavone], the EC50 (Coxsackievirus B3 [1]) is given as 25 µM, the “IC50 (virucidal)” value (Coxsackievirus B3 [2]) is given as 19 to 41 µg/mL and the CC50 at 24 h (in vitro; CC50) is given as 197 ± 2.29 µM. For the same molecule, the EC50 (FIPV [3]; Alphacoronavirus 1, CRFK) was 144.1 ± 0.01 µM, the EC90 (FIPV [3]; Alphacoronavirus 1, CRFK) was 242.9 ± 2.4 µM and the selectivity ratio at 24 h (FIPV [3]) was 1.37. The EC50 [4] was 11.1 to 28.2 µM and the CC10 (CRFK cells [5]) was 155.50 ± 2.19 µM.
In the case of `O=c1cc(-c2ccc(O)cc2)oc2cc(O)cc(O)c12` [Apigenin], the CC50 at 24 h (in vitro; CC50) is listed as 22.2 µM and the EC50 (Influenza A virus) is listed as 5 to 20 µM.
In the case of `O=C(O)[C@H]1O[C@@H](Oc2cc3oc(-c4ccccc4)cc(=O)c3c(O)c2O)[C@H](O)[C@@H](O)[C@@H]1O` [Baicalin], the CC50 at 24 h (in vitro; CC50) is given as greater than 200 µM, the EC50 (SARS-CoV-2) is given as 8 to 9 µM and the virucidal effect (Marek’s disease virus) is given as “Virucidal effect”.
In the case of `COc1ccc(-c2cc(=O)c3c(O)cc(O[C@@H]4O[C@H](CO[C@@H]5O[C@@H](C)[C@H](O)[C@@H](O)[C@H]5O)[C@@H](O)[C@H](O)[C@H]4O)cc3o2)cc1O` [Diosmin], the inhibition [6] is listed as “African swine fever virus (in vitro: 40% inhibition at 10 µg/mL)” and the CC50 at 24 h (in vitro; CC50) is listed as greater than 200 µM.
For `O=C(O[C@@H]1Cc2c(O)cc(O)cc2O[C@@H]1c1cc(O)c(O)c(O)c1)c1cc(O)c(O)c(O)c1` [Epigallocatechin gallate], the IC50 (SARS-CoV-2 3CL^pro) is listed as 7.58 µg/mL (≈ 16.5 µM), the EC50 (Zika virus) is listed as 21.4 µM and the EC50 (Hepatitis B virus) is listed as less than 10 µM. The “Selective index CC50/EC50” value (FIPV [3]; post-viral entry, CRFK cells) was 3.57, the EC50 (FIPV [3]; [19]) was 79.07 ± 0.01 µM and the EC90 (FIPV [3]; [19]) was 196.5 ± 1.96 µM. It also gave a CC10 (CRFK cells [7]) of 84.98 ± 1.93 µM and a CC50 (CRFK cells [7]) of 282.2 ± 0.12 µM.
For `CC(C)C[C@H](NC(=O)OCc1ccccc1)C(=O)N[C@@H](C[C@@H]1CCNC1=O)C(O)S(=O)(=O)[O-].[Na+]` (some centres unmarked) [GC376], the “cell protection (prophylactic) effect” value (FIPV [8]) was “did not possess the prophylactic and virus attachment effects”, the “effect on FIPV binding (attachment)” value (FIPV [9]) was “did not possess the prophylactic and virus attachment effects” and the “effect on FIPV penetration” value (FIPV [10]) was “inhibited FIPV replication at high concentrations of up to 50 μM”.
In the case of `O=C(O[C@@H]1Cc2c(O)cc(O)cc2O[C@H]1c1cc(O)c(O)c(O)c1)c1cc(O)c(O)c(O)c1` [Gallocatechin Gallate], the CC50 at 24 h (in vitro) is given as greater than 200 µM, the virus reduction (Enterovirus A71) is given as 56% and the EC50 [11] is given as 3.5 µM.
In the case of `COc1ccc([C@@H]2CC(=O)c3c(O)cc(O[C@@H]4O[C@H](CO[C@@H]5O[C@@H](C)[C@H](O)[C@@H](O)[C@H]5O)[C@@H](O)[C@H](O)[C@H]4O)cc3O2)cc1O` [Hesperidin], the viral titer reduction (Influenza A virus) is given as “Influenza A virus (in vitro: viral titer reduction at 3 log10 TCID50/0.1 mL)”.
For `COc1ccc(-c2cc(=O)c3c(O)cc(O)c(-c4cc(-c5cc(=O)c6c(O)cc(O)cc6o5)ccc4OC)c3o2)cc1` [Isoginkgetin], the EC50 (FIPV [12]) was 40.6 ± 1.5 µM, the “time of addition of maximal efficiency” value (FIPV [13]; 28.82 μM, harvested at 10-HPI, RT-qPCR) was 2–4 HPI and the “effect on FIPV” value (FIPV [13]; added at 0-HPI, 28.82 μM, RT-qPCR at 10-HPI) was “major inhibitory effect”. The “time of addition at which FIPV replication is inhibited” value (FIPV [13]; compound at EC90, harvested at 10-HPI, RT-qPCR) was 0–6 HPI, the EC50 [14] was 2.01 ± 0.07 µM and the EC50 [15] was 1.93 ± 0.21 µM. For the same molecule, the CC50 at 24 h (in vitro) was 199.4 ± 0.33 µM, the viability at 24 h, 75 µM (in vitro) was no less than 90% and the IC50 (FMDV 3C^pro) was 39 µM. For the same molecule, the EC50 (SARS-CoV-2; infected Vero cells) was 22.8 µM, the inhibition at 10 µM (FIPV [16]) was greater than 90% and the EC50 (FIPV [3]; Alphacoronavirus 1, CRFK) was 4.77 ± 0.09 µM. It also gave an EC90 (FIPV [3]; Alphacoronavirus 1, CRFK) of 28.8 ± 1.46 µM, a selectivity ratio at 24 h (FIPV [3]; Selective index CC50/EC50, post-viral entry, CRFK cells) of 41.8 and a CC10 (CRFK cells [7]) of 77.43 ± 2.52 µM. The “decrease of viral titer” value (FIPV [17]; 60 min) was 2 log10 TCID50/mL and the “decrease of viral titer” value (FIPV [17]; 120 min) was 1.89 log10 TCID50/mL.
For `O=c1c(-c2ccc(O)cc2)coc2c([C@@H]3O[C@H](CO)[C@@H](O)[C@H](O)[C@H]3O)c(O)ccc12` [Puerarin], the CC50 at 24 h (in vitro; CC50) is given as 195 µM and the EC50 (Influenza A virus) is given as 52.1 µM.
For `O=c1c(O)c(-c2ccc(O)c(O)c2)oc2cc(O)cc(O)c12` [Quercetin], the CC50 at 24 h (in vitro) is listed as greater than 200 µM and the IC50 (SARS-CoV-2 RdRp) is listed as 6.9 µM.
Work on `C[C@@H]1O[C@@H](OC[C@H]2O[C@@H](Oc3c(-c4ccc(O)c(O)c4)oc4cc(O)cc(O)c4c3=O)[C@H](O)[C@@H](O)[C@@H]2O)[C@H](O)[C@H](O)[C@H]1O` [Rutin] yielded a CC50 at 24 h (in vitro; CC50) greater than 200 µM.
In the case of `O=C(/C=C/c1ccc(O)cc1)OC[C@H]1O[C@@H](Oc2c(-c3ccc(O)cc3)oc3cc(O)cc(O)c3c2=O)[C@H](O)[C@@H](O)[C@@H]1O` [Tiliroside], the IC50 [18] is given as 20 µM and the CC50 at 24 h (in vitro) is given as 65.2 µM.
For Epicatechin-3-O-gallate, the EC50 [4] is listed as 4 µM.
